Results published in paper PMC8301776, “New Hybrid Compounds Combining Fragments of Usnic Acid and Monoterpenoids for Effective Tyrosyl-DNA Phosphodiesterase 1 Inhibition” (Biomolecules, 2021).
“Also recorded” adds a separate entry of the source.

Tests used:
Lewis lung carcinoma = conditions: mice with Lewis lung carcinoma; various administration schedules; cited from earlier work
TDP1 = target: T1, TDP1 (Homo sapiens, UniProt Q9NUW8); test: Real-time fluorescence detection of TDP1 activity (FAM/BHQ1 oligonucleotide biosensor); assay type: biochemical; conditions: as repeated in Table S1; read-out: IC50
T1 construct: made in house; host or cells: E. coli

HEK293A WT cells [1] = test: xCELLigence impedance-based real-time cell growth assay, alone or with Tpc; design: species or system human
Protocol: (§1) Cytotoxicity of the compounds was examined against human cell lines HEK293A (human embryonic kidney)—WT and TDP1-deficient (Tdp1-/-), and HeLa (cervical cancer) using an EZ4U colorimetric tests (Biomedica, Vienna, Austria) or xCELLigence DP Real-Time Cell Analyzer (ACEA Biosciences, Santa Clara, CA, USA). Cell lines were obtained from the Russian Cell Culture Collection (RCCC) Institute of Cytology RAS (St. Petersburg, Russia). The cells were grown in DMEM/F12 medium (Thermo Fisher Scientific, Waltham, MA, USA), with 1× GlutaMAX (Thermo Fisher Scientific, Waltham, MA, USA), 50 IU/mL penicillin, and 50 μg/mL streptomycin (Thermo Fisher Scientific, Waltham, MA, USA), and in the presence of 10% fetal bovine serum (Biolot, Saint-Petersburg, Russia) in 5% CO2 atmosphere. Control cells were grown in the presence of 1% DMSO where indicated. After formation of a 30–50% monolayer, tested compounds were added to the medium, and the cell culture was monitored for 3 days. […] The measurements were carried out in three parallel experiments.
This stimulation was also confirmed for HEK293A WT cells using the xCELLigence DP Real-Time Cell Analyzer impedance-based assay (Figure 9). […] The stimulation effect depends on the concentration of compounds 11a and 11c (Figure 9B,C).
(A). Cell growth of HEK293A cells in the control wells without compounds added (black), with 50 nM Tpc (red), 40 µM 11a (dark green), or 40 µ M 11c (violet). (B,C) Cell growth of HEK293A cells with 50 nM Tpc only (red) and in combination with 5 µM (green), 10 µM (dark blue), 20 µM (pink), or 40 µM (blue) 11a (B) or 11c (C).

HEK293A cells = test: Intrinsic cytotoxicity, EZ4U colorimetric test, HEK293A; assay type: cell-based, human; conditions: Figure 6
Protocol: as §1
(§2) The intrinsic cytotoxicity of the four lead compounds (11a–d) was examined using a colorimetric test (Figure 6).

HeLa cells [2] = test: Intrinsic cytotoxicity, EZ4U colorimetric test, HeLa; assay type: cell-based, human; conditions: Figure 6
Protocol: as §1, §2

HEK293A TDP1-/- cells = test: Topotecan cytotoxicity alone or in combination, colorimetric test, HEK293A TDP1-/- clones C6, G6, F7; assay type: cell-based, human
Description: TDP1 knockout HEK293A clones were obtained in the same way as the previously described TDP1 knockout HEK293FT clones. Briefly, two 20-nt protospacer sequences flanking the first protein coding exon of human TDP1 gene were selected using https://www.benchling.com/ (accessed date 1 November 2020). Oligonucleotides were cloned in plasmid pSpCas9(BB)-2A-GFP (PX458). pSpCas9(BB)-2A-GFP (PX458) was a gift from Feng Zhang (Addgene plasmid # 48138; http://n2t.net/addgene:48138; RRID: Addgene_48138). HEK293A cells were transfected with plasmids pX458-TDP1-gRNA1 and pX458-TDP1-gRNA2 (0.25 µg of each) using Lipofectamine 3000 Reagent (Thermofisher Scientific, Waltham, MA, USA). Growth medium contained DMEM/F12 (Thermofisher Scientific, Waltham, MA, USA) 1:1, 10% FBS (Thermofisher Scientific, Waltham, MA, USA), 100 U/mL penicillin–streptomycin (Thermofisher Scientific, Waltham, MA, USA), and 1 × GlutaMAX (Thermofisher Scientific, Waltham, MA, USA). […] Single cell clones grew for two weeks, and genome DNA was analyzed on CRISPR/Cas9-mediated deletions in TDP1 gene by PCR amplification of target region with primers: TDP1-scF 5′-[…]-3′ and TDP1-scR 5′-[…]-3′. […]
Cytotoxicity of the compounds was examined against human cell lines HEK293A (human embryonic kidney)—WT and TDP1-deficient (Tdp1-/-), and HeLa (cervical cancer) using an EZ4U colorimetric tests (Biomedica, Vienna, Austria) or xCELLigence DP Real-Time Cell Analyzer (ACEA Biosciences, Santa Clara, CA, USA). […] After formation of a 30–50% monolayer, tested compounds were added to the medium, and the cell culture was monitored for 3 days. […]
In our previous work, the cytotoxic effect of Tpc and the TDP1 inhibitors, monoterpene 3-carene derivatives, was established; both were measured separately and jointly using a panel of HEK293FT TDP1 knockout isogenic clones. […] No cleavage activity was detected in the clones’ C6, G6, and F7 cell extracts in contrast to control WT and purified TDP1. […]

HeLa cells [3] = test: Topotecan cytotoxicity in combination with TDP1 inhibitors, colorimetric test, HeLa; assay type: cell-based, human
Protocol: as §1
The combination index (CI) values were determined for different concentrations of Tpc and the enamines 11a–d at 2 and 5 μM. […] The CI values were calculated with the CompuSyn version 1.0 software. The CI plot at different fraction-affected (Fa) was determined for Tpc (0.3, 0.5, 1, 2, and 4 μM) and the Tdp1 inhibitors (2 and 5 μM).

HEK293A WT cells [4] = test: Topotecan cytotoxicity in combination with TDP1 inhibitors, colorimetric test, HEK293A WT; assay type: cell-based, human
Protocol: as §1
There was no difference between WT and the mutant cells.

Krebs 2 ascites tumors = test system: Krebs 2 ascites tumors; design: method as in PMID 33871444; conditions: Krebs 2 ascites tumors in mice; cited from earlier work

T1 sequence (Q9NUW8 whole entry): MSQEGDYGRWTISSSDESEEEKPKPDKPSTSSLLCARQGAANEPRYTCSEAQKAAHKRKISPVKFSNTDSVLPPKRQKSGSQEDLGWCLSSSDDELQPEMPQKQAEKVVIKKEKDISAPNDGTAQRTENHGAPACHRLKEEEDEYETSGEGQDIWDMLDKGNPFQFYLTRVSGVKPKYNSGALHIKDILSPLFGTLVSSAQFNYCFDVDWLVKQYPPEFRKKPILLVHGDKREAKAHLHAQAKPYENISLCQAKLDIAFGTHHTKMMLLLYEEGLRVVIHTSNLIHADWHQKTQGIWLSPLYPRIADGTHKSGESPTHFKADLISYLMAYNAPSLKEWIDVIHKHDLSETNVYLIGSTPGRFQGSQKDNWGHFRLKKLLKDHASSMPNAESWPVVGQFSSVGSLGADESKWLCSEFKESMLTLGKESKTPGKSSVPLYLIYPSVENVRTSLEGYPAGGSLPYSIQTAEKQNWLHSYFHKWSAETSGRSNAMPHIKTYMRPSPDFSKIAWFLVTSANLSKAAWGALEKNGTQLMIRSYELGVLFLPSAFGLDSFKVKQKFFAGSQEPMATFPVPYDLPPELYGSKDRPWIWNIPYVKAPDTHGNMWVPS

For `CC(=O)c1c(O)c(C)c(O)c2c1OC1=CC(=O)/C(=C(/C)NCCCc3cc(C(C)(C)C)c(O)c(C(C)(C)C)c3)C(=O)[C@@]12C` [5b], the antimetastatic activity (Lewis lung carcinoma) is given as “strong antimetastatic activity”.
With `CC(=O)c1c(O)c(C)c(O)c2c1OC1=CC(=O)/C(=C(/C)NCCC3=CC[C@H]4C[C@@H]3C4(C)C)C(=O)[C@@]12C` [11c, (2R,4E)-10-Acetyl-4-[1-({2-[(1R,5S)-6,6-dimethylbicyclo[3.1.1]hept-2-en-2-yl]ethyl}amino)ethylidene]-11,13-dihydroxy-2,12-dimethyl-8-oxatricyclo[7.4.0.0^2,7]trideca-1(13),6,9,11-tetraene-3,5-dione] the IC50 (TDP1) was 0.32 µM, the “effect on cell growth with Tpc, compared to Tpc” value (HEK293A WT cells [1]; 50 nM Tpc + 5, 10, 20 or 40 µM compound) was “stimulated cell growth” and the “toxicity of compound alone (in words)” value (HEK293A WT cells [1]; 40 µM compound) was “non-toxic”. For the same molecule, the “intrinsic cytotoxicity (in words)” value (HEK293A cells) was “non-cytotoxic”, the “intrinsic cytotoxicity (in words)” value (HeLa cells [2]) was “non-cytotoxic” and the “effect on cell growth in combination with Tpc, compared to Tpc (in words)” value (HEK293A TDP1-/- cells; HEK293A Tdp1-/- cells, combination with Tpc) was “stimulation of cell growth”. The “effect on Tpc cytotoxicity (in words)” value (HeLa cells [3]) was “enhanced topotecan’s cytotoxicity; also recorded: synergistic effect; also recorded: enhanced Tpc cytotoxicity” and the “effect on Tpc cytotoxicity / cell growth, compared to Tpc (in words)” value (HEK293A WT cells [4]) was “reduced it; also recorded: stimulation of cell growth; also recorded: stimulated cell growth”.
For `CC[C@@]1(O)C(=O)OCc2c1cc1n(c2=O)Cc2cc3c(CN(C)C)c(O)ccc3nc2-1` [Tpc, topotecan, reference compound], the “antitumor effect, given separately” value (Krebs 2 ascites tumors) is given as “antitumor effect” and the “sensitivity of TDP1-/- cells to Tpc compared to WT” value (HEK293A TDP1-/- cells; HEK293A clones C6, G6, F7 vs WT, colorimetric test) is given as “more sensitive to Tpc compared to WT”.
